This note sets out measurements from ChEMBL document CHEMBL4020815 (J Med Chem, 2017).

Series [1] can be described thus: Equilibrium aqueous solubility of the compound at pH 7.5 after 20 hrs by HPLC method. The series is classed as physicochemical.
Series [2] concerns Mus musculus. As to the kind of experiment: In vivo inhibition of AICARFT in tumor of athymic nude mouse xenografted with human MDA-MB-231met2 cells assessed as increase in AICAr levels at 30 mg/kg, bid administered via oral gavage for 22 days relative to control. The series is classed as functional.
Series [3] has as its target CYP3A4 (Homo sapiens, UniProt P08684). The series can be described thus: Inhibition of human CYP3A4 at 10 uM relative to control. Format: ADME.
In series [4] the target is T1, Bifunctional methylenetetrahydrofolate dehydrogenase/cyclohydrolase 2, mitochondrial (Homo sapiens, UniProt Q9H903).
T1 sequence (Q9H903 whole entry): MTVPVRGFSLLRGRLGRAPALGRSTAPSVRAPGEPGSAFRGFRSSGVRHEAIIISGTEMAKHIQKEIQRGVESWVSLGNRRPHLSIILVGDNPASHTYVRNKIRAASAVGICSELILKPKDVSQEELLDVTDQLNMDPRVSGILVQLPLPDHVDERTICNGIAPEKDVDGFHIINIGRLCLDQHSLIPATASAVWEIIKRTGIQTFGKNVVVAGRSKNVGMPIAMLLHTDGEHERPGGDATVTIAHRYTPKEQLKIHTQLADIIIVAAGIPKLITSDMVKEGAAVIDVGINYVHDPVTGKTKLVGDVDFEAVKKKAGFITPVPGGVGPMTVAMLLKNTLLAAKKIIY
As to the kind of experiment: Inhibition of MTHFD2L (unknown origin) using NAD/5,10-methylene THF as substrate after 2 hrs by HPLC method.

Series [5] has as its system Mus musculus. As to the kind of experiment: Unbound Cmax in CD-1 mouse at 10 mg/kg, po by LC-MS/MS method. The note with it: in vivo. Format: ADME, organism-based.
Series [6] addresses T2, C-1-tetrahydrofolate synthase, cytoplasmic (Homo sapiens, UniProt P11586).
T2 sequence (P11586 whole entry): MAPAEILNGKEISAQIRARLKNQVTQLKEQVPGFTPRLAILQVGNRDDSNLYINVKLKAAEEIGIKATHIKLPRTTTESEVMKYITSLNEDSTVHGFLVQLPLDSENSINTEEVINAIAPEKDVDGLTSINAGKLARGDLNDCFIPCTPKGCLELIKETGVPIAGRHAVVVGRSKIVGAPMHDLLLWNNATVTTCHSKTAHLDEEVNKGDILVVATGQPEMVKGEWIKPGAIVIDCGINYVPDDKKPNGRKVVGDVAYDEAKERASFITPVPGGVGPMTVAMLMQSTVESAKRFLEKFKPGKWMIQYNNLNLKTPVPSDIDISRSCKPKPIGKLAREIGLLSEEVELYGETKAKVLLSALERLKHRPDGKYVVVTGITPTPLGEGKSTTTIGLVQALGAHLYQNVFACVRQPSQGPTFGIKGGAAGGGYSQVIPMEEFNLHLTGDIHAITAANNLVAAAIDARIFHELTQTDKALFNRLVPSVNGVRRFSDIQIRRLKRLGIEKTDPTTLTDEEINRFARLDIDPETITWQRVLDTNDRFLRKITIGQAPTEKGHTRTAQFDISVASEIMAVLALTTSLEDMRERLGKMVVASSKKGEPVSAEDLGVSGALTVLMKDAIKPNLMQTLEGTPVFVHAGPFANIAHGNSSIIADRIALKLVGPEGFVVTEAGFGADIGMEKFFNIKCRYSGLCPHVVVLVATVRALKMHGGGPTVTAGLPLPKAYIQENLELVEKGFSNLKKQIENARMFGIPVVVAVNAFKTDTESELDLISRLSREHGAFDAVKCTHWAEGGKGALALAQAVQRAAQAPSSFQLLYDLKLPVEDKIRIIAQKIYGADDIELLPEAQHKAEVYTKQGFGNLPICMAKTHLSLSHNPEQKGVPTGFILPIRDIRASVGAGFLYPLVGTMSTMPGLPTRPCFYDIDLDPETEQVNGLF
The series can be described thus: Inhibition of MTHFD1 (unknown origin) using NADP/5,10-methylene THF as substrate after 30 mins by HPLC method.

The subject of series [7] is MDA-MB-231. The series can be described thus: Cytotoxicity against human MDA-MB-231 cells assessed as growth inhibition using regular folate media after 7 days by Alamar blue assay. The series is classed as functional. The note with it: MDA-MB-231, 168 h.
Series [8] deals with NCI-H460. As to the kind of experiment: Cytotoxicity against human NCI-H460 cells assessed as growth inhibition using regular folate media after 7 days by Alamar blue assay. Format: functional. Conditions: NCI-H460, 168 h. For orientation: Resazurin is reduced to fluorescent resorufin, in cell work by metabolically active cells.
Series [9] is described as follows: Antitumor activity against human MDA-MB-231met2 cells xenografted in athymic nude mouse assessed as tumor volume at 30 mg/kg, bid administered via oral gavage for 22 days relative to control. The series is classed as functional. (In general: In xenograft studies the graft and the host belong to different species.)
Series [10] concerns Mus musculus. The series can be described thus: Toxicity in athymic nude mouse xenografted with human MDA-MB-231met2 cells assessed as body weight loss at 30 to 60 mg/kg, bid administered via oral gavage for 22 days. The note with it: in vivo, 528 h. Format: organism-based.
Series [11] has as its target CYP2C9 (Homo sapiens, UniProt P11712). The series can be described thus: Inhibition of human CYP2C9 at 10 uM relative to control. The series is classed as ADME.
Series [12] relates to Mus musculus. As to the kind of experiment: In vivo inhibition of AICARFT in tumor of athymic nude mouse xenografted with human MDA-MB-231met2 cells assessed as increase in ZMP levels at 60 mg/kg, bid administered via oral gavage for 22 days relative to control. The series is classed as functional.
Series [13] concerns Mus musculus. As to the kind of experiment: In vivo inhibition of AICARFT in tumor of athymic nude mouse xenografted with human MDA-MB-231met2 cells assessed as increase in ZMP levels at 30 mg/kg, bid administered via oral gavage for 22 days relative to control. Format: functional.
Series [14] has as its system Mus musculus. As to the kind of experiment: Unbound volume of distribution at steady state in CD-1 mouse at 1 mg/kg, iv by LC-MS/MS method. Conditions: in vivo. Format: ADME, organism-based.
Series [15] has as its system Mus musculus. The series can be described thus: Unbound clearance in CD-1 mouse at 1 mg/kg, iv by LC-MS/MS method. The series is classed as ADME, organism-based. The note with it: in vivo.
Series [16] can be described thus: Permeability across apical to basolateral side in MDCK cells at 20 uM. Format: ADME, cell-based, Canis lupus familiaris. The note with it: dog.
Series [17] is described as follows: Antiproliferative activity against human MDA-MB-231met2 cells by Alamar blue assay. Format: functional, cell-based.
The nature of series [18]: Fraction unbound in CD-1 mouse plasma. The series is classed as ADME, cell-free.
Series [19] addresses T3, Serine hydroxymethyltransferase, cytosolic (Homo sapiens, UniProt P34896).
T3 sequence (P34896 whole entry): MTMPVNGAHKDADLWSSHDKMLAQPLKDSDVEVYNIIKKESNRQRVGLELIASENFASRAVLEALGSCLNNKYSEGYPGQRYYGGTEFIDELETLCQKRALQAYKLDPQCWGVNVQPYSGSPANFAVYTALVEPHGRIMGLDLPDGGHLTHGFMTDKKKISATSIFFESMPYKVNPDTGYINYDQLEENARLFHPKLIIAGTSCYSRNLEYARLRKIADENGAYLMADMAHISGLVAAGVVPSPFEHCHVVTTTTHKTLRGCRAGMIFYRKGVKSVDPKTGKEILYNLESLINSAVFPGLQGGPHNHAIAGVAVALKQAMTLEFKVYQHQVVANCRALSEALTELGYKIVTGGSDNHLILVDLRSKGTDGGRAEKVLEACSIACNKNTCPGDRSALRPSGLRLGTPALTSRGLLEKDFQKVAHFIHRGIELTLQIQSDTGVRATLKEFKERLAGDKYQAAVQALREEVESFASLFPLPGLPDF
As to the kind of experiment: Inhibition of SHMT1 (unknown origin) using serine/THF as substrate after 50 mins by HPLC method.

≈ marks a conversion by molar mass, not a printed value.

CYP2C9, sequence (P11712 whole entry): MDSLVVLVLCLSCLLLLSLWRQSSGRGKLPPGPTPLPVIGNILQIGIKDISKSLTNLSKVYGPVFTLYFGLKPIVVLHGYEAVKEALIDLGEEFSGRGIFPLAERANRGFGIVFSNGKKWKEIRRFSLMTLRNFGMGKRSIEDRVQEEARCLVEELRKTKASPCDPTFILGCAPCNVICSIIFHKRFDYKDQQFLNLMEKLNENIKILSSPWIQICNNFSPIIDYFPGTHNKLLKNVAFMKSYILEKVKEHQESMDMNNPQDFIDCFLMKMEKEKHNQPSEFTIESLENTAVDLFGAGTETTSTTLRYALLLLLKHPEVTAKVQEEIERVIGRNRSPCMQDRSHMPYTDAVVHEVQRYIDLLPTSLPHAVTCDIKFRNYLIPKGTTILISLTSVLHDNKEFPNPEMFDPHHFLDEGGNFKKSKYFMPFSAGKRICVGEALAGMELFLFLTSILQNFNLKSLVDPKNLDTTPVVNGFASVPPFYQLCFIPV
CYP3A4, sequence (P08684 whole entry): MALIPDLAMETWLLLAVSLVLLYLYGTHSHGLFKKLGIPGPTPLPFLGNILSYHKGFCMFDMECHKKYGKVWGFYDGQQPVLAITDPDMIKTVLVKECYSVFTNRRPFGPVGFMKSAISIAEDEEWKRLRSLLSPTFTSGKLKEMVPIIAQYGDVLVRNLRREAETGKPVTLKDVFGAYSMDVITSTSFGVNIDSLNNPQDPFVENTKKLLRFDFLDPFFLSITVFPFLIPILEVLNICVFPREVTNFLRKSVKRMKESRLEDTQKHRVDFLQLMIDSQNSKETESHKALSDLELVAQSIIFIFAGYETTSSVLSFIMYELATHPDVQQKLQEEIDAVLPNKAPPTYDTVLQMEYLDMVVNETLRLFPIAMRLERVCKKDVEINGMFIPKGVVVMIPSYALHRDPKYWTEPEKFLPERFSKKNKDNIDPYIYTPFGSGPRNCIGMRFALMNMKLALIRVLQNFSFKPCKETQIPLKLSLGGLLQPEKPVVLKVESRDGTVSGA

In series [1], `O=c1[nH]ccc2cc(F)c(NS(=O)(=O)c3ccc(N4CC[C@@H](O)C4)s3)cc12` registered a solubility (thermodynamic) at 20 h of 20 µg/mL (≈ 48.8 µM). The “fold change (FC)” value in series [2] came out at 30; in series [12], 16; in series [13], 10. Further, the inhibition at 10 µM in series [3] and in [11] was less than 10% in each case. For the same compound, the IC50 in series [4] was more than 100 µM; in series [6] it was more than 100 µM; in [17] it was 0.085 µM; in series [19], more than 100 µM. In [5], this compound registered a fCmax of 289 nM. Also, the results for the GI50 in series [7] and in series [8] were 0.044 µM and 6.58 µM, respectively. In addition, the Activity in series [9] was 16%; in [10], “Non-Toxic”. For the same compound, in [14], the Vduss stood at 12 L/kg. In [15], this compound yielded a CL free of 78 mL/min/kg. In [16], this compound came in with a permeability of 0.2%. In series [18], the fraction unbound amounted to 0.06.

A word on the solubility (thermodynamic): it is solubility found after equilibrating the solid with the medium. One may read the inhibition as the share of the control response that was lost under treatment. A high value points to a strong effect. Usually IC50 stands for the concentration that inhibits the measured activity by half. As usually defined, the GI50 is the concentration that inhibits growth by half. A word on the fraction unbound: it is the share of the substance not bound to proteins or other matrix. The low end stands for extensive binding, the high end for weak binding.
